Reference: ChEMBL document CHEMBL5505976, “Identification of the exosomal PD-L1 inhibitor to promote the PD-1 targeting therapy of gastric cancer” (Eur J Med Chem, 2024)
Calls of active or inactive are those of the source. No cut-off for these calls is given here.

Key:
[1] = target: Programmed cell death 1 ligand 1 (Homo sapiens, UniProt Q9NZQ7); experiment: Inhibition of exosomal PD-L1 (unknown origin) generation preincubated with compound for 24 hrs followed by strep-d2 acceptor bead addition and measured after 30 mins by HTRF assay
MGC-803 [2] = experiment: Sensitization of human MGC-803 cells to CD8-positive T cell assessed as increase in activated T cells at 400 nM measured for 48 hrs in presence of recombinant PD-1 by MTS assay; format: functional, cell-based
[3] = Tmax in Sprague-Dawley rat at 25 mg/kg, po measured upto 24 hrs by LC-MS/MS analysis; format: ADME, organism-based; details: in vivo
MFC [4] = experiment: Antitumor activity against mouse MFC cells transfected with OVA implanted in female mouse assessed as decrease in accumulation of exosomal PD-L1 in tumor at 25 mg/kg, po in presence of anti-PD-1 antibody; format: functional, organism-based
MGC-803 [5] = experiment: Sensitization of human MGC-803 cells to CD8-positive T cell assessed as increase in TNF-alpha level by ELISA analysis; format: functional, cell-based; details: dose <= 400.0 nM
T-cell = experiment: Cytotoxicity against mouse T cell at 100 uM measured for 24 hrs by MTS assay; format: toxicity, cell-based
MGC-803 [6] = experiment: Sensitization of human MGC-803 cells to CD8-positive T cell assessed as increase in activated T cells measured for 48 hrs in presence of Nivolumab by MTS assay; format: functional, cell-based
MFC [7] = experiment: Antitumor activity against mouse MFC cells implanted in female mouse assessed as tumor growth inhibition at 25 mg/kg, po in presence of anti-mouse PD-1; details: read-out: TGI
MGC-803 [8] = experiment: Sensitization of human MGC-803 cells to CD8-positive T cell assessed as increase in IL-2 level by ELISA analysis; format: functional, cell-based; details: dose <= 400.0 nM
MFC [9] = experiment: Antiproliferative activity against mouse MFC cells transfected with OVA assessed as inhibition of cell proliferation measured for 48 hrs in presence of anti-mouse PD-1 antibody by MTS assay; format: functional, cell-based
MGC-803 [10] = experiment: Sensitization of human MGC-803 cells to CD8-positive T cell assessed as increase in IFN-gamma level by ELISA analysis; format: functional, cell-based; details: dose <= 400.0 nM
[11] = Toxicity in female mouse xenografted with mouse MFC cells transfected with OVA assessed as spleen damage at 25 mg/kg, po by H and E staining based analysis; format: organism-based; details: in vivo
MGC-803 [12] = experiment: Effect on exosomes generation in human MGC-803 cells at 400 nM measured for 24 hrs; format: functional, cell-based
[13] = Cmax in Sprague-Dawley rat at 25 mg/kg, po measured upto 24 hrs by LC-MS/MS analysis; format: ADME, organism-based; details: in vivo
PDC-GC-239 = experiment: Sensitization of human poor differentiated gastric cancer PDC-GC-239 cells to CD8-positive T cell assessed as increase in activated T cells measured for 48 hrs by MTS assay; format: functional, cell-based
MFC [14] = experiment: Antitumor activity against mouse MFC cells transfected with OVA implanted in female mouse assessed as increase in TNF-alpha level in tumor at 25 mg/kg, po in presence of PD-1 antibody by ELISA analysis; format: functional, organism-based
[15] = Toxicity in female mouse xenografted with mouse MFC cells transfected with OVA assessed as kidney damage at 25 mg/kg, po by H and E staining based analysis; format: organism-based; details: in vivo
MFC [16] = experiment: Antitumor activity against mouse MFC cells transfected with OVA implanted in female mouse assessed as increase in IFN-gamma level in tumor at 25 mg/kg, po in presence of PD-1 antibody by ELISA analysis; format: functional, organism-based
MFC [17] = experiment: Antitumor activity against mouse MFC cells implanted in female mouse assessed as reduction in tumor weight at 25 mg/kg, po in presence of anti-mouse PD-1; format: functional, organism-based
[18] = Toxicity in female mouse xenografted with mouse MFC cells transfected with OVA assessed as lung damage at 25 mg/kg, po by H and E staining based analysis; format: organism-based; details: in vivo
[19] = Half life in Sprague-Dawley rat at 25 mg/kg, po measured upto 24 hrs by LC-MS/MS analysis; format: ADME, organism-based; details: in vivo
PDC-GC-919 = experiment: Sensitization of human poor differentiated gastric cancer PDC-GC-919 cells to CD8-positive T cell assessed as increase in activated T cells measured for 48 hrs by MTS assay; format: functional, cell-based
MFC [20] = experiment: Antitumor activity against mouse MFC cells transfected with OVA implanted in female mouse assessed as decrease in accumulation of exosomal PD-L1 in tumor at 25 mg/kg, po; format: functional, organism-based
[21] = Toxicity in female mouse assessed as effect on body weight at 25 mg/kg, po in presence of anti-mouse PD-1 antibody; format: organism-based; details: in vivo
[22] = AUC (0 to infinity) in Sprague-Dawley rat at 25 mg/kg, po measured upto 24 hrs by LC-MS/MS analysis; format: ADME, organism-based; details: in vivo
MFC [23] = experiment: Antitumor activity against mouse MFC cells implanted in female mouse assessed as tumor growth inhibition at 25 mg/kg, po; details: read-out: TGI
MGC-803 [24] = experiment: Inhibition of exosomal PD-L1 expression in human MGC-803 cells incubated for 24 hrs by Western blot analysis; format: functional, cell-based; details: dose <= 400.0 nM
[25] = Toxicity in female mouse xenografted with mouse MFC cells transfected with OVA assessed as liver damage at 25 mg/kg, po by H and E staining based analysis; format: organism-based; details: in vivo
[26] = Clearance in Sprague-Dawley rat at 25 mg/kg, po measured upto 24 hrs by LC-MS/MS analysis; format: ADME, organism-based; details: in vivo
MFC [27] = experiment: Antitumor activity against mouse MFC cells transfected with OVA implanted in female mouse assessed as increase in IL-2 level in tumor at 25 mg/kg, po in presence of PD-1 antibody by ELISA analysis; format: functional, organism-based
[28] = Toxicity in female mouse xenografted with mouse MFC cells transfected with OVA assessed as heart damage at 25 mg/kg, po by H and E staining based analysis; format: organism-based; details: in vivo

Chain of Programmed cell death 1 ligand 1 (Q9NZQ7 whole entry): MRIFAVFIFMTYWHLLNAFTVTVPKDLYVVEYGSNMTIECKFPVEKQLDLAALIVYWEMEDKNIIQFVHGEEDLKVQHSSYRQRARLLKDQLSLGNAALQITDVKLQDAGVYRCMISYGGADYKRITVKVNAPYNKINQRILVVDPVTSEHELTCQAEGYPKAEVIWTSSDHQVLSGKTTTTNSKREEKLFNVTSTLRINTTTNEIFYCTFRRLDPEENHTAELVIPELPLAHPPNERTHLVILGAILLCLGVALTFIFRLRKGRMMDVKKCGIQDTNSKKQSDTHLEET

O=C(NCCN1CCOCC1)c1ccc(-c2ccc(C(F)(F)F)cc2)cc1
IC50 [1]: 6820 nM

COc1ccc(-c2ccc(C(=O)NCCN3CCOCC3)cc2)cn1
IC50 [1]: 669 nM

CC(C)(C)OC(=O)Nc1ccc(-c2ccc(C(=O)NCCN3CCOCC3)cc2)cc1
IC50 [1]: 681 nM

O=C(NCCN1CCOCC1)c1ccc(Cl)cc1 [MOCLOBEMIDE]
IC50 [1]: 3860 nM

O=C(NCCN1CCOCC1)c1ccc(-c2ccc(F)cc2)cc1
IC50 [1]: 2240 nM

O=C(NCCN1CCOCC1)c1ccc(-c2ccc3cc4ccccc4cc3c2)cc1
IC50 [1]: > 10000 nM

Cn1ccc2cc(-c3ccc(C(=O)NCCN4CCOCC4)cc3)ccc21
IC50 [1]: 217 nM

O=C(NCCN1CCOCC1)c1ccc(-c2cc3ccccc3s2)cc1
IC50 [1]: 648 nM

N#Cc1ccc(-c2ccc(C(=O)NCCN3CCOCC3)cc2)cc1
IC50 [1]: 498 nM

COc1ncc(-c2ccc(C(=O)NCCN3CCOCC3)cc2)cn1
IC50 [1]: 461 nM

COc1ccc(-c2ccc(C(=O)NCCN3CCOCC3)cc2)cc1F
IC50 [1]: 623 nM

CCOC(C)n1cc(-c2ccc(C(=O)NCCN3CCOCC3)cc2)cn1 (centres undefined)
IC50 [1]: 753 nM

O=C(NCCN1CCOCC1)c1ccc(-c2ccn(C3CCCCO3)n2)cc1 (centres undefined)
IC50 [1]: 2590 nM

O=C(NCCN1CCOCC1)c1ccc(-c2ccc3c(c2)OCCO3)cc1
IC50 [1]: 153 nM

O=C(NCCN1CCOCC1)c1ccc(-c2cnc3[nH]ccc3c2)cc1
Activity (MGC-803 [2]): Active
Tmax [3]: 0.25 h
Activity (MFC [4]): Active
Activity (MGC-803 [5]): Dose-Dependent Effect
Activity (T-cell): Non-Toxic
Activity (MGC-803 [6]): Active
inhibition in vivo at 25 mg/kg (MFC [7]): 69%
Activity (MGC-803 [8]): Dose-Dependent Effect
Activity (MFC [9]): Active
Activity (MGC-803 [10]): Dose-Dependent Effect
Activity [11]: Non-Toxic
Activity (MGC-803 [12]): Active
Cmax [13]: 1210 ng/mL
Activity (PDC-GC-239): Active
Activity (MFC [14]): Active
Activity [15]: Non-Toxic
Activity (MFC [16]): Active
Activity (MFC [17]): Active
Activity [18]: Non-Toxic
half-life [19]: 2.73 h
Activity (PDC-GC-919): Active
Activity (MFC [20]): Active
Activity [21]: Non-Toxic
IC50 [1]: 108 nM
AUC [22]: 1668.51 ng·h/mL
inhibition in vivo at 25 mg/kg (MFC [23]): 32%
inhibition (MGC-803 [24]): Dose-Dependent Effect
Activity [25]: Non-Toxic
CL [26]: 587.3 mL/min/kg
Activity (MFC [27]): Active
Activity [28]: Non-Toxic

Cn1nccc1-c1ccc(C(=O)NCCN2CCOCC2)cc1
IC50 [1]: 286 nM

O=C(NCCN1CCOCC1)c1ccc(-c2ccccc2)cc1
IC50 [1]: 1540 nM

O=C(NCCN1CCOCC1)c1ccc(-c2cncnc2)cc1
IC50 [1]: 571 nM

Nc1ccc(-c2ccc(C(=O)NCCN3CCOCC3)cc2)cc1
IC50 [1]: 336 nM
